Data as given in ChEMBL document CHEMBL3991601, “The target landscape of clinical kinase drugs” (Science, 2017).
Active and inactive are the calls of the source. For most assays here, no stated cut-off is given here; in the data, actives have a measured Kd and inactives only a lower limit.

Columns and labels:
[1] = target: T1, AarF domain-containing protein kinase 1 (Homo sapiens, UniProt Q86TW2)
T1 sequence (Q86TW2 whole entry): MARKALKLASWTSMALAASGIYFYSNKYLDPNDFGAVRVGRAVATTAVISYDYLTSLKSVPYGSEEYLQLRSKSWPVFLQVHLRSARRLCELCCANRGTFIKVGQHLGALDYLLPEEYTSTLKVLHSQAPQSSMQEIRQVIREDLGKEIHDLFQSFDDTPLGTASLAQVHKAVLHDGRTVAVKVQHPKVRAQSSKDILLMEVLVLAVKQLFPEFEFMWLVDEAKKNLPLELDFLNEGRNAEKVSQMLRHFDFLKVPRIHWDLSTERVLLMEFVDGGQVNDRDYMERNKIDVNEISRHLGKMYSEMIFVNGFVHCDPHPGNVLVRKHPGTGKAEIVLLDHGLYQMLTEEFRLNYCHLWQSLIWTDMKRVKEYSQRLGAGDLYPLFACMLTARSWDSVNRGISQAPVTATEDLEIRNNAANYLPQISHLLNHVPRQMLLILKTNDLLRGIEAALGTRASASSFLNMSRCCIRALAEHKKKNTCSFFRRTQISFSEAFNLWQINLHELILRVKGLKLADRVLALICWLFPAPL

Activin receptor type-1 = target: T2, Activin receptor type-1 (Homo sapiens, UniProt Q04771)
T2 sequence (Q04771 whole entry): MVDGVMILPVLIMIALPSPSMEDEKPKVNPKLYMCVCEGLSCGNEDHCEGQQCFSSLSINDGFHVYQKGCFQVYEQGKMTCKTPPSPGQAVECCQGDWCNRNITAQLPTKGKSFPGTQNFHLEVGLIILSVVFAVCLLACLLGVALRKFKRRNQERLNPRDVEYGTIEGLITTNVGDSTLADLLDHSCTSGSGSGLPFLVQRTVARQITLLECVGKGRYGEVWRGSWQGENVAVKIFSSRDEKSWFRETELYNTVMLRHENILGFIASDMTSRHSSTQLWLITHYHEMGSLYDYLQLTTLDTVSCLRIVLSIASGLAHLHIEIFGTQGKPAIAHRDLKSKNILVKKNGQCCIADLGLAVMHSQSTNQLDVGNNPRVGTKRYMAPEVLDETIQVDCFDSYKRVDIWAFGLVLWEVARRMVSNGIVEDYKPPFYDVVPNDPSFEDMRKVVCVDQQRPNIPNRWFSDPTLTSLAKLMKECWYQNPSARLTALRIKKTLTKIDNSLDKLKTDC

[2] = target: T3, Ras-related protein Rab-27A (Homo sapiens, UniProt P51159)
T3 sequence (P51159 whole entry): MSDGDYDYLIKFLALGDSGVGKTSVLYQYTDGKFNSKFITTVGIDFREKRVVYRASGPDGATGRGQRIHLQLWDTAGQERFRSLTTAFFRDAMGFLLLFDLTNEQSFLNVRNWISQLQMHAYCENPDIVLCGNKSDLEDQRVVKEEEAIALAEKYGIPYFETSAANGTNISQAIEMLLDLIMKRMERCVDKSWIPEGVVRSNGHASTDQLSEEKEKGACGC

[3] = target: Macrophage-stimulating protein receptor (Homo sapiens, UniProt Q04912)
Macrophage-stimulating protein receptor, sequence (Q04912 25-304 limits assumed): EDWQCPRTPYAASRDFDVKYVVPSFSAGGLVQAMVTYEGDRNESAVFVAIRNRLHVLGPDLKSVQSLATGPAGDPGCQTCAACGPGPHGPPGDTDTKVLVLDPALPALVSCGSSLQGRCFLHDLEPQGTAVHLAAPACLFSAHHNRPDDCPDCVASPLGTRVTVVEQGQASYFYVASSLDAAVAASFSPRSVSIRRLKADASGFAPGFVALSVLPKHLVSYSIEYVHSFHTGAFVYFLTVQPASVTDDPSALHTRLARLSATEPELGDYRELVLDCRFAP
Macrophage-stimulating protein receptor, sequence (Q04912 310-1400 limits assumed): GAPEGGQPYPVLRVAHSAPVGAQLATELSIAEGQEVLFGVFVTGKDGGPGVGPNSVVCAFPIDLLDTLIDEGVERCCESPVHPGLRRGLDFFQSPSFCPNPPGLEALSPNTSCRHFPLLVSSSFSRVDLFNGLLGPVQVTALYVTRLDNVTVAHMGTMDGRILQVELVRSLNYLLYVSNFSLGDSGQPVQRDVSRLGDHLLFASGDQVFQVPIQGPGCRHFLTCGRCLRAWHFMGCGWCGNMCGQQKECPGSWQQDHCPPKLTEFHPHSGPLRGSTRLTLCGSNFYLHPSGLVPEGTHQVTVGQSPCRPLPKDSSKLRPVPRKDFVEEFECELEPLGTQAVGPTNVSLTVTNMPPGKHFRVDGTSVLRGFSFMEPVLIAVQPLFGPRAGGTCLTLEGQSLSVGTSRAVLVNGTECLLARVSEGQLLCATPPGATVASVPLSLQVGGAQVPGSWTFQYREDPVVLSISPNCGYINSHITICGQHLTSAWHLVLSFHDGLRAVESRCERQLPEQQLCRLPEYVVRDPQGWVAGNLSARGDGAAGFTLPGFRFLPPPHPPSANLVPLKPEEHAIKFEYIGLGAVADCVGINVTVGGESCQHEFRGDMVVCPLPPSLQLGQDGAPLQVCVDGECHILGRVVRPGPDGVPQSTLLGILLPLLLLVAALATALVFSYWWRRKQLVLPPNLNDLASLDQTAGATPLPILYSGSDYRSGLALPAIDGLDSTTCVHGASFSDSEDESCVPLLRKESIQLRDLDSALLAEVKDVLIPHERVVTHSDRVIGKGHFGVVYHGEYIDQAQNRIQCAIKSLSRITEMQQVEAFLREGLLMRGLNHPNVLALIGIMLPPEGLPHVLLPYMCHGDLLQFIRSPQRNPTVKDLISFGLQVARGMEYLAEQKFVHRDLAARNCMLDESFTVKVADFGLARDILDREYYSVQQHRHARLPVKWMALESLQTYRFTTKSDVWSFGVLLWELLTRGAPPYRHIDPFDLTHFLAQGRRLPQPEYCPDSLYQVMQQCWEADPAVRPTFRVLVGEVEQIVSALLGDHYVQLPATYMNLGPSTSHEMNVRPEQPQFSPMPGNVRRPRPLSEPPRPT

[4] = target: Adenylate kinase 2, mitochondrial (Homo sapiens, UniProt P54819)
ADP/ATP translocase 2 = target: T4, ADP/ATP translocase 2 (Homo sapiens, UniProt P05141)
T4 sequence (P05141 whole entry): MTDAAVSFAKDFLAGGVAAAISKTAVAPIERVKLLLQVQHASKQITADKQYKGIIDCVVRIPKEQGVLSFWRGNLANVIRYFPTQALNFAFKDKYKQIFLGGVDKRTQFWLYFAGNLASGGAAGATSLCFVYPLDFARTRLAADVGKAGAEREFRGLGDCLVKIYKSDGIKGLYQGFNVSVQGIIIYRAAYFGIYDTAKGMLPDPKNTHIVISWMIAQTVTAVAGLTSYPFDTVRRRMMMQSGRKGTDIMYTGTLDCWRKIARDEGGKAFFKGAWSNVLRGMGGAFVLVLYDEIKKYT

[5] = target: Putative heat shock protein HSP 90-beta 2 (Homo sapiens, UniProt Q58FF8)
Putative heat shock protein HSP 90-beta 2, sequence (Q58FF8 whole entry): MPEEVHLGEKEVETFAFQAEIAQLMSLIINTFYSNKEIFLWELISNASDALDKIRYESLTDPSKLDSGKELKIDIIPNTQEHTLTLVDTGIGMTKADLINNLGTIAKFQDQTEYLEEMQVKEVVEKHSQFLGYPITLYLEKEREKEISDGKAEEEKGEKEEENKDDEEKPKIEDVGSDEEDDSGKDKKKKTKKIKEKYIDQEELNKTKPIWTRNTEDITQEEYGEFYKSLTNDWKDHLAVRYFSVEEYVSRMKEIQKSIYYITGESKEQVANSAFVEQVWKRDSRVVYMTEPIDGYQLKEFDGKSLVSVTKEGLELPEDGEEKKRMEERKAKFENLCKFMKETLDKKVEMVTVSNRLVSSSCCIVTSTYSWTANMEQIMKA

[6] = target: Mitogen-activated protein kinase kinase kinase kinase 4 (Homo sapiens, UniProt O95819)
Mitogen-activated protein kinase kinase kinase kinase 4, sequence (O95819 whole entry): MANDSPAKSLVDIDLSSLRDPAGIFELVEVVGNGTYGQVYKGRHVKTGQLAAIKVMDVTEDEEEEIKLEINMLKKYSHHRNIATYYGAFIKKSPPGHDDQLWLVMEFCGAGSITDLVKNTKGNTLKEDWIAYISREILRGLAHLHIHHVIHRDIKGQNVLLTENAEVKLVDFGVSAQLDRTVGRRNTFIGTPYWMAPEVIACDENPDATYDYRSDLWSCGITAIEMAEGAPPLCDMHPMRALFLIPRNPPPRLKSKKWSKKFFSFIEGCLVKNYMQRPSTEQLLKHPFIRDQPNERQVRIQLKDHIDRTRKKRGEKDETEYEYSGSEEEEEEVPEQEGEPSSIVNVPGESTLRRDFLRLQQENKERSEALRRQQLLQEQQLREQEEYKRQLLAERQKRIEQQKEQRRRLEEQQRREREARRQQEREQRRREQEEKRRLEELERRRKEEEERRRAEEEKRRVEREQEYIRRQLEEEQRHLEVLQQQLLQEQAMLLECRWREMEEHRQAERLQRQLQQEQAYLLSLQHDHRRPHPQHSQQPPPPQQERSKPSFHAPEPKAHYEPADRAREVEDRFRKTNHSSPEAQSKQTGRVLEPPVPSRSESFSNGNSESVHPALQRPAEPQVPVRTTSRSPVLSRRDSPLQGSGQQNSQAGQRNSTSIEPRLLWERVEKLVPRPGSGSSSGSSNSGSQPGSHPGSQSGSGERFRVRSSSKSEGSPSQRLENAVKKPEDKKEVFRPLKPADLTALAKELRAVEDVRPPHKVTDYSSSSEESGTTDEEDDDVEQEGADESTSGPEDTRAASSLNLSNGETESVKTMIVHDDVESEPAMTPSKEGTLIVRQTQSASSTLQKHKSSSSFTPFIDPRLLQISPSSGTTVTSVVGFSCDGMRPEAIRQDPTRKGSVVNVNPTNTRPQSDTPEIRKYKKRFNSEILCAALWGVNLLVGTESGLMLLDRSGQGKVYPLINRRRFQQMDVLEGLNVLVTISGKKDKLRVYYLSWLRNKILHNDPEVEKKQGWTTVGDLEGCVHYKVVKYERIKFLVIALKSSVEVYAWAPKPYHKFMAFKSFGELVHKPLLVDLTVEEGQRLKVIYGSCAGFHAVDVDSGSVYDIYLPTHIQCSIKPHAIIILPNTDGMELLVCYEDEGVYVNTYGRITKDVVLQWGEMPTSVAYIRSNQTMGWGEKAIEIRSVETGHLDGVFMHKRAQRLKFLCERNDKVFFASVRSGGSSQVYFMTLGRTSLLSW

[7] = target: Dual specificity mitogen-activated protein kinase kinase 1 (Homo sapiens, UniProt Q02750)
Dual specificity mitogen-activated protein kinase kinase 1, sequence (Q02750 whole entry): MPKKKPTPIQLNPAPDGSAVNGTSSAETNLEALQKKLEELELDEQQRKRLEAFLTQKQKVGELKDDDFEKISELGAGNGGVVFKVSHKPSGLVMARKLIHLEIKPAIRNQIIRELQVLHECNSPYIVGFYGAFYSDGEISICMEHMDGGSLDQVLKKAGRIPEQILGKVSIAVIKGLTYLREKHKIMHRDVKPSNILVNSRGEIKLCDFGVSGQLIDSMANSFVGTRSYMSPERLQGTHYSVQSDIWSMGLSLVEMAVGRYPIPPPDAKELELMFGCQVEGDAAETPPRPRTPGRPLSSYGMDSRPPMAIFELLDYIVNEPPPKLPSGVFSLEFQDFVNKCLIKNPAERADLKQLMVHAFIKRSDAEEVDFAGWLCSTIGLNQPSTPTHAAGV

[8] = target: T5, Mitogen-activated protein kinase kinase kinase kinase 2 (Homo sapiens, UniProt Q12851)
T5 sequence (Q12851 whole entry): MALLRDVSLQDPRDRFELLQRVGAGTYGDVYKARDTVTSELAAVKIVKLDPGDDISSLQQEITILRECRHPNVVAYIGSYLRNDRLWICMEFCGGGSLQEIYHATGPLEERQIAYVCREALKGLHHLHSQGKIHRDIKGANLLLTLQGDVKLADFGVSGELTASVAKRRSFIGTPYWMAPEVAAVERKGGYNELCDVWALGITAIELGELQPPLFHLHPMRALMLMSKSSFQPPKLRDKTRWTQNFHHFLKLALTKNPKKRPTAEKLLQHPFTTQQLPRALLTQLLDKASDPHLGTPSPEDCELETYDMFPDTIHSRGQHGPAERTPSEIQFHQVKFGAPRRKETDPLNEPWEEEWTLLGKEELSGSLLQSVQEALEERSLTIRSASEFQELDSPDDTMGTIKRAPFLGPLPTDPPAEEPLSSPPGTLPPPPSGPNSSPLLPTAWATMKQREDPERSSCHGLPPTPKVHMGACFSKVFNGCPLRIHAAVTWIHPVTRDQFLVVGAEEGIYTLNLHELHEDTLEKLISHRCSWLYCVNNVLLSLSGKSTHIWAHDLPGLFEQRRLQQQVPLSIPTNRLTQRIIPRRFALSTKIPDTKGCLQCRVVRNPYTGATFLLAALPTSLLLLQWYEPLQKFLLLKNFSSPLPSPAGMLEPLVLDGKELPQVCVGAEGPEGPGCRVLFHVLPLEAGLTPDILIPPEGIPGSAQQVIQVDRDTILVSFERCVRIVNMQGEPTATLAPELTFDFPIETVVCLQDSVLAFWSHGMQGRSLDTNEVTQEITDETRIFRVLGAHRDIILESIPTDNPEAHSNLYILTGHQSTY

| Structure (SMILES) | Kd [1] | Kd (Activin receptor type-1) | Kd [2] | Kd [3] | Kd [4] | Kd (ADP/ATP translocase 2) | Kd [5] | Kd [6] | Kd [7] | Kd [8] |
| --- | --- | --- | --- | --- | --- | --- | --- | --- | --- | --- |
| CC(=O)c1cnc2ccc(-c3cc(Cl)c(O)c(Cl)c3)nc2c1N[C@H]1CC[C@H](CN(C)C)CC1 | > 30 µM (inactive) | 0.222 µM (active) | > 30 µM (inactive) | 0.311 µM (active) | > 30 µM (inactive) | > 30 µM (inactive) | > 30 µM (inactive) | 0.088 µM | 0.968 µM (active) | – |
| C=CC(=O)N1CCC[C@H](n2c(=O)n(-c3ccc(Oc4ccccc4)cc3)c3c(N)ncnc32)C1 | > 30 µM (inactive) | > 30 µM (inactive) | > 30 µM (inactive) | > 30 µM (inactive) | > 30 µM (inactive) | > 30 µM (inactive) | > 30 µM (inactive) | > 30 µM (inactive) | > 30 µM (inactive) | > 30 µM (inactive) |
| COCc1c(-c2ccc(NC(=O)Nc3cc(C(F)(F)F)ccc3F)c(F)c2)c2c(N)ncnn2c1CN1CCOCC1 | > 30 µM (inactive) | > 30 µM (inactive) | > 30 µM (inactive) | > 30 µM (inactive) | > 30 µM (inactive) | > 30 µM (inactive) | > 30 µM (inactive) | > 30 µM (inactive) | > 30 µM (inactive) | 4.16 µM (active) |
| Cn1cc(C2=C(c3cn(C4CCN(Cc5ccccn5)CC4)c4ccccc34)C(=O)NC2=O)c2ccccc21 [ENZASTAURIN] | > 30 µM (inactive) | – | > 30 µM (inactive) | – | > 30 µM (inactive) | > 30 µM (inactive) | > 30 µM (inactive) | – | – | – |
| O=C(Nc1nc2cccc(-c3ccc(CN4CCS(=O)(=O)CC4)cc3)n2n1)C1CC1 [FILGOTINIB] | 2.03 µM (active) | > 30 µM (inactive) | > 30 µM (inactive) | > 30 µM (inactive) | > 30 µM (inactive) | > 30 µM (inactive) | > 30 µM (inactive) | > 30 µM (inactive) | > 30 µM (inactive) | > 30 µM (inactive) |
| CCCCCCCCCCCCCCCCCCOP(=O)([O-])OC1CC[N+](C)(C)CC1 [PERIFOSINE] | > 30 µM (inactive) | > 30 µM (inactive) | > 30 µM (inactive) | > 30 µM (inactive) | > 30 µM (inactive) | > 30 µM (inactive) | > 30 µM (inactive) | > 30 µM (inactive) | > 30 µM (inactive) | > 30 µM (inactive) |
| CNC(=O)c1cc(Oc2ccc(NC(=O)Nc3cc(C(C)(C)C)nn3-c3ccc4ncccc4c3)c(F)c2)ccn1 [REBASTINIB] | > 30 µM (inactive) | > 30 µM (inactive) | > 30 µM (inactive) | 0.732 µM (active) | > 30 µM (inactive) | > 30 µM (inactive) | > 30 µM (inactive) | 2.71 µM (active) | > 30 µM (inactive) | 1.06 µM (active) |

Other lines, results leading:

| Kd [1] | Kd (Activin receptor type-1) | Kd [2] | Kd [3] | Kd [4] | Kd (ADP/ATP translocase 2) | Kd [5] | Kd [6] | Kd [7] | Kd [8] | Structure (SMILES) |
| --- | --- | --- | --- | --- | --- | --- | --- | --- | --- | --- |
| > 30 µM (inactive) | > 30 µM (inactive) | > 30 µM (inactive) | > 30 µM (inactive) | > 30 µM (inactive) | > 30 µM (inactive) | > 30 µM (inactive) | > 30 µM (inactive) | – | > 30 µM (inactive) | Cc1cc(C(=O)NOCCO)c(Nc2ccc(I)cc2F)n(C)c1=O [AZD-8330] |
| > 30 µM (inactive) | > 30 µM (inactive) | > 30 µM (inactive) | > 30 µM (inactive) | > 30 µM (inactive) | > 30 µM (inactive) | > 30 µM (inactive) | > 30 µM (inactive) | > 30 µM (inactive) | > 30 µM (inactive) | CCn1c(C(=O)N(C2CC2)C2CC2)cc2c3c(ncn3C)c(Nc3cc(C)n(C)n3)nc21 [BMS-911543] |
| > 30 µM (inactive) | > 30 µM (inactive) | > 30 µM (inactive) | > 30 µM (inactive) | > 30 µM (inactive) | > 30 µM (inactive) | > 30 µM (inactive) | > 30 µM (inactive) | > 30 µM (inactive) | > 30 µM (inactive) | Cc1nc2cc(-n3ncc(C(=O)c4cc5ccccc5[nH]4)c3N)ccc2[nH]1 [FGFR INHIBITOR DEBIO 1347] |
| 22.7 µM (active) | – | > 30 µM (inactive) | > 30 µM (inactive) | > 30 µM (inactive) | > 30 µM (inactive) | > 30 µM (inactive) | – | > 30 µM (inactive) | > 30 µM (inactive) | CCn1cc(-c2ccnc3[nH]c(-c4cccc(CN(C)C)c4)cc23)c(-c2ccc(NC(=O)N(C)C)cc2)n1 [GSK-1070916] |
| > 30 µM (inactive) | > 30 µM (inactive) | > 30 µM (inactive) | > 30 µM (inactive) | > 30 µM (inactive) | > 30 µM (inactive) | > 30 µM (inactive) | > 30 µM (inactive) | > 30 µM (inactive) | > 30 µM (inactive) | NC1(c2ccc(-c3nc4ccn5c(=O)[nH]nc5c4cc3-c3ccccc3)cc2)CCC1 [MK-2206] |
| > 30 µM (inactive) | > 30 µM (inactive) | > 30 µM (inactive) | > 30 µM (inactive) | > 30 µM (inactive) | > 30 µM (inactive) | > 30 µM (inactive) | > 30 µM (inactive) | > 30 µM (inactive) | > 30 µM (inactive) | COc1ncc(-c2ccc3nccc(-c4ccnnc4)c3c2)cc1NS(=O)(=O)c1ccc(F)cc1F [OMIPALISIB] |
| > 30 µM (inactive) | – | > 30 µM (inactive) | – | > 30 µM (inactive) | > 30 µM (inactive) | > 30 µM (inactive) | – | – | – | CC(=O)NCC(=O)N1[C@@H]2CC[C@H]1c1ccc(Nc3ncc(C(F)(F)F)c(NC4CCC4)n3)cc12 [PF-03814735] |
| > 30 µM (inactive) | > 30 µM (inactive) | > 30 µM (inactive) | > 30 µM (inactive) | > 30 µM (inactive) | > 30 µM (inactive) | > 30 µM (inactive) | > 30 µM (inactive) | > 30 µM (inactive) | > 30 µM (inactive) | N#CC1(c2ccc(NC(=O)c3cccnc3NCc3ccncc3)cc2)CCCC1 [RIVOCERANIB] |
